Laboratory results taken from US7494824B2, “Interactive system for presenting and eliminating substances” (Max-Planck-Gesellschaft zur Förderung der Wissenschaften e. …, priority 1997, dated 2009).
Values belong to the substance of their own block, whether it stands above or below them.

What was measured:
[1] = Urea assay of enzyme activity, pH titration, compared with non-conjugated urease; assay type: biochemical
Description: (§1) As model enzyme, urease (EC 3.5.1.5., available from Sigma, order no. U 1500) is used. The preparation of a PEG-coupled urease preparation: 100 mg urease (type III, specific activity 20,000 to 30,000 U/g) are dissolved in 80 ml 0.1-mol borate buffer (pH 8) and added to 250 mg methoxy polyethylene glycol (25,000)-4-nitrophenyl carbonate and incubated for 24 h at 5° C. The reaction is stopped by a several times higher molar excess of TRIS, dialyzed against TRIS-HCl (pH 8) and developed in a HP-Q-sepharose column having a linear NaCl gradient (pH 8). The PEG urease conjugate elutes-at 180 to 200 mmol NaCl. The yield of PEG urease conjugate is 30-40%. The enzyme activity is measured by means of a urea assay. The cleaving activity is monitored by way of pH titration measuring and compared with non-conjugated urease. […] The urease coupled with 25 kD-polyethylene glycol is applied in a concentration of 2 mg (based on the protein content of the conjugate) to a miniaturized experimental capillary dialyzer having a surface of 50 cm^2. Already after the first circulation, more than 90% of the urease are immobilized on the surface. By the fifth recirculation cycle, the PEG urease is firmly installed on the surface of the membrane. […] A blood plasma solution (50 ml containing 30 mg urea) is applied to the urease-doped PMMA capillary dialyzer system. […]

[2] = Immobilization of PEG urease on miniaturized experimental PMMA capillary dialyzer; details: 2 mg on 50 cm^2 dialyzer, after the first circulation
Description: as §1

[3] = Urea breakdown in blood plasma solution on urease-doped PMMA capillary dialyzer system; assay type: biochemical
Description: As model enzyme, urease (EC 3.5.1.5., available from Sigma, order no. U 1500) is used. The preparation of a PEG-coupled urease preparation: 100 mg urease (type III, specific activity 20,000 to 30,000 U/g) are dissolved in 80 ml 0.1-mol borate buffer (pH 8) and added to 250 mg methoxy polyethylene glycol (25,000)-4-nitrophenyl carbonate and incubated for 24 h at 5° C. The reaction is stopped by a several times higher molar excess of TRIS, dialyzed against TRIS-HCl (pH 8) and developed in a HP-Q-sepharose column having a linear NaCl gradient (pH 8). The PEG urease conjugate elutes-at 180 to 200 mmol NaCl. The yield of PEG urease conjugate is 30-40%. The enzyme activity is measured by means of a urea assay. The cleaving activity is monitored by way of pH titration measuring and compared with non-conjugated urease. […] The urease coupled with 25 kD-polyethylene glycol is applied in a concentration of 2 mg (based on the protein content of the conjugate) to a miniaturized experimental capillary dialyzer having a surface of 50 cm^2. Already after the first circulation, more than 90% of the urease are immobilized on the surface. By the fifth recirculation cycle, the PEG urease is firmly installed on the surface of the membrane. […] A blood plasma solution (50 ml containing 30 mg urea) is applied to the urease-doped PMMA capillary dialyzer system. In the eluate of the experimental PEG-urease-PMMA membrane, the remaining amounts of urea are identified after 5, 10, 20, and 30 minutes by way of an enzyme assay. […] The ammonia test in the blood is positive during the last 25 minutes of the experiment. From the analysis, it can be doubtlessly concluded that a pegylated enzyme, bonded to the PMMA membrane, develops a local enzyme activity and is able to generate corresponding specific interactions with its substrate in the circulating blood.

[4] = target: thrombin (Homo sapiens, UniProt P00734); details: previous analyses, Dickneite G. et al.; cited from earlier work

influence of pegylation on the ureolytic activity of the enzyme [1]: slightly activity-increasing
Substance: PEG urease: urease (EC 3.5.1.5., Sigma) coupled with 25 kD-polyethylene glycol
urease immobilized on the surface [2]: more than 90%
remaining urea in the eluate ([3]; 50 ml plasma containing 30 mg urea, after 30 min): unbound urea cannot be identified anymore
urea concentration in the blood plasma ([3]; 50 ml plasma containing 30 mg urea, within the first 10 min): decreases rapidly
ammonia test in the blood ([3]; during the last 25 minutes of the experiment): positive

Substance: Mtr-Asn-D-Adf-Pip
thrombin inhibiting agent quality [4]: highly specific and effective
